The values that follow come from publication PMC3920478, “Small molecule-mediated refolding and activation of myosin motor function” (eLife, 2014).

One assay relates to phosphodiesterase III. Also noted: method as in Gambassi et al., 1993. The note with it: ref Gambassi et al., 1993; cited from earlier work.
Assay [1] deals with T1, Dd myosin-2 ΔSH3 (lacks residues 33–79) (Dictyostelium discoideum, UniProt P08799, DEL34-80).
T1 construct: Dd myosin-2 ΔSH3, a recombinant motor domain construct that lacks this subdomain; made in house
T1 sequence (P08799 other isoform, or with tags, fused parts or gaps DEL34-80): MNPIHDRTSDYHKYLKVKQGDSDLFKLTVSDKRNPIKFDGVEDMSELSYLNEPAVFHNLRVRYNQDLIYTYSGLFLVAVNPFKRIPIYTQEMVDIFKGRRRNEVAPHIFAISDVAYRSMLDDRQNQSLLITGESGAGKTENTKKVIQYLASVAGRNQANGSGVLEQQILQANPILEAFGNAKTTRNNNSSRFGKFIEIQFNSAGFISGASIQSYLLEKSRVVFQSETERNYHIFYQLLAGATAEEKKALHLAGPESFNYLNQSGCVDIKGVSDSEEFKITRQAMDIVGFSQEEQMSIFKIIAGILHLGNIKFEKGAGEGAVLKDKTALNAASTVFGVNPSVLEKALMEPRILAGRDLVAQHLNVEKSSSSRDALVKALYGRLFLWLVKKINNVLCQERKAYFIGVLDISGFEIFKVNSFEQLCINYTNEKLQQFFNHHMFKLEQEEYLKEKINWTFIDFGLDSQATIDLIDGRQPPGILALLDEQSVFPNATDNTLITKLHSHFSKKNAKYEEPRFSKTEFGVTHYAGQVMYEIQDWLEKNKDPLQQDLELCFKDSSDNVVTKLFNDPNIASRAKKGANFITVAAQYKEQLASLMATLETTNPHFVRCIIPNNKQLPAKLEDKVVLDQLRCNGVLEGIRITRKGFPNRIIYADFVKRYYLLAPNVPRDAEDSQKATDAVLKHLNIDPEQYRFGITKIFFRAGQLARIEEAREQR
The assay can be described thus: Steady-state basal and actin-activated Mg2+-ATPase (NADH-coupled assay). The assay is classed as biochemical. From the text:
Initial blind docking to homology models of the β-cardiac myosin motor domain in the post-rigor state indicated preferred binding of the drug to a region near the small N-terminal, SH3-like βbarrel subdomain. Important contacts are predicted to involve the SH3-like subdomain (residues 34–72) and two α-helices (residues 20–28 and 98–111). […] The sets of binding poses differ mainly in the orientation of the dimethylated catechol group, occupying either of the two possible branches of the Y, while the thiadiazinone moiety appears little affected and resides in the root of the Y shaped cavity (Figure 2A,B). Potential residues involved in the binding of the thiadiazinone and tetrahydroquinoline moieties of the compound include Arg23, Asp85, Lys86, Asp107, Arg108, and Ser111. The dimethylated catechol moiety is mainly bound by residues Lys34, Lys48, and Gln79, and thus, interacts with the SH3-like β-barrel.
Basal and actin-activated Mg^2+-ATPase activities were measured using the NADH-coupled assay described previously ([Furch et al., 1998]) adapted for higher throughput screens for a temperature controlled plate reader (Multiscan FC, Thermo Scientific, Waltham, MA) at 25°C. EMD 57033 was added to the reaction mixture in the absence of nucleotide and incubated before the reaction was started by the addition of ATP. Control measurements were carried out in the absence of drug, as well as in the presence of according concentrations of the non-binding (−)-enantiomer EMD 57439 to account for possible absorption effects. […] Data points are mean values from 3 to 5 independent experiments. Error bars indicate standard deviations.

A further assay deals with T2, Dd myosin-5 motor domain (Dictyostelium discoideum, UniProt P54697).
T2 sequence (P54697 1-821 limits assumed): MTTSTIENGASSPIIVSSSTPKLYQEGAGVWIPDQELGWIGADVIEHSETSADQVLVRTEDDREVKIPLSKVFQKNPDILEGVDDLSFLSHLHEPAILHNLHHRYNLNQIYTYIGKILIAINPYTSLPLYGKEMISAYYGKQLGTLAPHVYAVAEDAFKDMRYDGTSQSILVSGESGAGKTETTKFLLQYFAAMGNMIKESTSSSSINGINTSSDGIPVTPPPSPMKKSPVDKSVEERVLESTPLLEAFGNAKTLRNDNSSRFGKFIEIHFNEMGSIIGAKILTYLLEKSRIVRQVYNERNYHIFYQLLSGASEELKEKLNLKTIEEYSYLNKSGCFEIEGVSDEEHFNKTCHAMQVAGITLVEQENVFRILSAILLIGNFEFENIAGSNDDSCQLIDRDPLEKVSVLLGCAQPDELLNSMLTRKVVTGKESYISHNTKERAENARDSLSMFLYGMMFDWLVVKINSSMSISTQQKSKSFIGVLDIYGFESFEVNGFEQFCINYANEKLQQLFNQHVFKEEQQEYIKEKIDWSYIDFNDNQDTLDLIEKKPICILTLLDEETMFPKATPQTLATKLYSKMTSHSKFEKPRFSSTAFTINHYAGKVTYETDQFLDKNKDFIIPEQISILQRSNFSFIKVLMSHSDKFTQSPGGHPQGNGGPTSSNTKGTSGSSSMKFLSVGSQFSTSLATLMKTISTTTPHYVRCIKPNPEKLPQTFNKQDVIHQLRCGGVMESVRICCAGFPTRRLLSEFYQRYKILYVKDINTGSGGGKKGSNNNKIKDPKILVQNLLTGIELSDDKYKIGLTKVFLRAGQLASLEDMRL
Nature of the assay: Direct binding to motor domain construct. From the text: (§1) Proteolytic fragments were further purified by actin-coprecipitation.

For another assay, the target named is T3, β-cardiac myosin S1 (Sus scrofa, UniProt P79293).
T3 construct: S1 and HMM fragments were produced by proteolytic digestion of the full-length proteins with 0.05 mg/ml papain; from tissue; host or cells: porcine cardiac muscle
T3 sequence (P79293 1-843 limits assumed): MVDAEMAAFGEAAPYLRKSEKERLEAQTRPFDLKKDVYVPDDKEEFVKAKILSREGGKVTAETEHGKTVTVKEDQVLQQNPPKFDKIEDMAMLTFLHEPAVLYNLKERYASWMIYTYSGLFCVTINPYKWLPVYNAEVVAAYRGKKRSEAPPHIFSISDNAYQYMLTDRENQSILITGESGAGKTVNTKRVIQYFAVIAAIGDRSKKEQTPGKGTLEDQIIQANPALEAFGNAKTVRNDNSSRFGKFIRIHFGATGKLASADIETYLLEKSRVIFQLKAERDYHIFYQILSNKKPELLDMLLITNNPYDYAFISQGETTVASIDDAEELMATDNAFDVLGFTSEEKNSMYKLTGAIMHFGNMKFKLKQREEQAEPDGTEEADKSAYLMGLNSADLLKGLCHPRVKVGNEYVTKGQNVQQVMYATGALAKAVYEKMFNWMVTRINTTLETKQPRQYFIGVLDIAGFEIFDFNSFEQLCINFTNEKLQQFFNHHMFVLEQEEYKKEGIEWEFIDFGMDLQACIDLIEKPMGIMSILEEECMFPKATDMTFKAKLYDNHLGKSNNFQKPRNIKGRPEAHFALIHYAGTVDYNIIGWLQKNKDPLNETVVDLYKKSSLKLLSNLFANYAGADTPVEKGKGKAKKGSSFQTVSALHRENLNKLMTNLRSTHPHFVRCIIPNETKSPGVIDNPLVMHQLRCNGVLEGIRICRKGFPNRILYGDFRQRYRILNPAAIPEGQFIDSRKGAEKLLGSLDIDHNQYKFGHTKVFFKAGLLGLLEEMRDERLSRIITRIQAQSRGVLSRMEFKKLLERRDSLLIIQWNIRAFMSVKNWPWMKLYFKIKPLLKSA
The assay can be described thus: Microscale thermophoresis direct binding. Further details: species or system Porcine.
Text: as §1

For assay [2], the target named is T4, complex formed by the β-cardiac myosin motor domain with F-actin (Sus scrofa, UniProt P79293).
T4 construct: Melting curves of the complex formed by the β-cardiac myosin motor domain with F-actin; from tissue; host or cells: porcine cardiac muscle (myosin)
T4 sequence (P79293 1-843 limits assumed, one chain of several): as the sequence (P79293 1-843 limits assumed) above
The assay can be described thus: Melting curve by differential static light scattering. The note with it: 100 µM EMD 57033. The procedure:
Circular dichroism and differential static light scattering experiments were performed to determine Tm.
Protein stability was assayed following protein aggregation associated with heat denaturation ([Senisterra et al., 2006]). Protein solutions were diluted to a concentration of 0.2 mg/ml in a buffer containing 5 mM KPi pH 7.5, 25 mM KCl and heated in steps of 0.6°C. Static light scattering was measured at each temperature step and the resulting transition curve was fitted by a Boltzmann function. The transition midpoint gives a measure for the aggregation temperature induced by protein denaturation.

SMILES strings stand for the structures.

Take `COc1ccc(C(=O)N2CCCc3cc(C4=NNC(=O)SC4C)ccc32)cc1OC` (centres unmarked) [EMD 57033]: the “Phosphodiesterase III inhibition” value in the assay on phosphodiesterase III is reported as “only minimal phosphodiesterase III inhibitory effects”. In addition, the “Normalized maximal ATPase activation (basal)” value in assay [1] was “no effect”. In addition, the “Normalized maximal ATPase activation (with 30 µM actin)” value in assay [1] (30 µM actin) was “no effect”. The “ATPase / chemomechanical activation of the truncated construct” value in assay [1] (100 µM EMD 57033) is reported as “no significant activation”. Besides, the “Direct binding to the motor domain” value on Dd myosin-5 motor domain is reported as “Direct binding of EMD 57033 to the motor domain was observed”. For the same compound, the Binding stoichiometry entry on β-cardiac myosin S1 was “one molecule of EMD 57033 per myosin head”. Besides, the Kd at β-cardiac myosin S1 (fluorescently labeled β-cardiac myosin S1, 100 nM, fit to Hill equation, read-out: Binding affinity (MST), KD) turned out to be 7.3 µM. The “Tm (mid-point of transition)” value in assay [2] came to 66.4 ± 3 °C.
